Drawing on US20190381037A1, “Benzylaminopyridylcyclopropanecarboxylic acids, pharmaceutical compositions and uses thereof” (Boehringer Ingelheim International GmbH, priority 2017, published 2019), this text covers EC50 for 22 compounds.

Broadly, the pEC50 is the negative decadic logarithm of the EC50, by convention in mol/L. Read a low pEC50 as a high EC50.

pEC50: −log10 of the molar value.

human GPR40 receptor, sequence (O14842 whole entry): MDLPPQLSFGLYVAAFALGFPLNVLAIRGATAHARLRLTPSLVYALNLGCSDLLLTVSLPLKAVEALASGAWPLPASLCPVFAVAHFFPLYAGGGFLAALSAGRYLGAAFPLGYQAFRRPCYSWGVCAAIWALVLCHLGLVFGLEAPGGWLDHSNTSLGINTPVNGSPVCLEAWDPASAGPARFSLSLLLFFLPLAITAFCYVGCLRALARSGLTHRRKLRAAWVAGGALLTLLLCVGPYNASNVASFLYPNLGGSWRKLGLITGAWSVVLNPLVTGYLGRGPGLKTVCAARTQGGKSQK

This test deals with human GPR40 receptor (Homo sapiens, UniProt O14842). Kind of test: IP1 accumulation measurements using the IPOne assay system. Particulars: 1321N1 cells stably expressing human GPR40 receptor; stimulated 1 h at 37° C. The class given is cell-based. The method, then:
IP1 accumulation measurements using the IPOne assay system—1321N1 cells stably expressing human GPR40 receptor (Euroscreen, Belgium) are seeded 24 h before the assay in white 384-well plates in culture medium containing 10% FCS, 1% Na-Pyruvate and 400 μg/mL G418. IP1 is assayed according to the manufacturer's description (Cisbio Bioassays, France). In brief, the assay is started by substitution of the culture medium by stimulation buffer (Hepes 10 mM, CaCl2) 1 mM, MgCl2 0.5 mM, KCl 4.2 mM, NaCl 146 mM, glucose 5.5 mM and LiCl 50 mM, pH 7.4). Cells are stimulated for 1 h at 37° C., 5% CO2 by addition of the compounds that are diluted in stimulation buffer containing LiCl. Assays are stopped by adding HTRF-conjugates (IP1-d2 and Anti-IP1 cryptate Tb) and lysis buffer, provided by the manufacturer. After an incubation time of 1 h at room temperature plates are measured using an EnVision™, Perkin Elmer. The obtained fluorescence ratios at 665/615 […] are then used to calculate the pEC50 values using Assay Explorer 3.3 Software (Accelrys, Inc.) by interpolation using an IP1 reference curve and subsequent sigmoidal curve fitting allowing for a variable hill slope.
Take `Cc1cc(OCCC(C)(C)O)cc(C)c1-c1cc(COc2cnc([C@H]3C[C@@H]3C(=O)O)cn2)c(F)cc1F` [Example 1, (1 S,2S)-2-{5-[4,6-Difluoro-4′-(3-hydroxy-3-methyl-butoxy)-2′,6′-dimethyl-biphenyl-3-ylmethoxy]-pyrazin-2-yl}-cyclopropanecarboxylic acid]: the pEC50 was 8.22.

For the compound `Cc1cc(-c2nnn(C)n2)cc(C)c1-c1cccc(COc2cnc([C@H]3C[C@@H]3C(=O)O)cn2)c1` [Example 2, (1 S,2S)-2-{5-[2′,6′-Dimethyl-4′-(2-methyl-2H-tetrazol-5-yl)-biphenyl-3-ylmethoxy]-pyrazin-2-yl}-cyclopropanecarboxylic acid], the pEC50 is 8.52.

Compound `O=C(O)[C@H]1C[C@@H]1c1cnc(OCc2cccc(-c3ccccc3C(F)(F)F)c2)cn1` [Example 3, (1 S,2S)-2-[5-(2′-Trifluoromethyl-biphenyl-3-ylmethoxy)-pyrazin-2-yl]-cyclopropanecarboxylic acid] showed a pEC50 of 7.62.

Regarding `COc1cc(C)c(-c2cccc(COc3cnc([C@H]4C[C@@H]4C(=O)O)cn3)c2)c(C)c1` [Example 4, (1 S,2S)-2-[5-(4′-Methoxy-2′,6′-dimethyl-biphenyl-3-ylmethoxy)-pyrazin-2-yl]-cyclopropanecarboxylic acid], the pEC50 was 7.92.

Consider `O=C(O)[C@H]1C[C@@H]1c1cnc(OCc2cccc(-c3ccc(-c4cnco4)cc3)c2)cn1` [Example 5, (1 S,2S)-2-[5-(4′-Oxazol-5-yl-biphenyl-3-ylmethoxy)-pyrazin-2-yl]-cyclopropane-carboxylic acid], for which the pEC50 was 7.17.

Regarding `Cc1cc(O[C@H]2CCOC2)cc(C)c1-c1cccc(COc2cnc([C@H]3C[C@@H]3C(=O)O)cn2)c1` [Example 6, (1 S,2S)-2-(5-{2′,6′-Dimethyl-4′-[(S)-(tetrahydro-furan-3-yl)oxy]-biphenyl-3-ylmethoxy}-pyrazin-2-yl)-cyclopropanecarboxylic acid], the negative logarithm of the EC50 (pEC50) is 8.00.

The compound `Cc1cc(OC2CCOCC2)cc(C)c1-c1cccc(COc2cnc([C@H]3C[C@@H]3C(=O)O)cn2)c1` [Example 7, (1 S,2S)-2-{5-[2′,6′-Dimethyl-4′-(tetrahydro-pyran-4-yloxy)-biphenyl-3-ylmethoxy]-pyrazin-2-yl}-cyclopropanecarboxylic acid] had a pEC50 of 8.10.

In turn, `Cc1cc(OCCC(C)(C)O)cc(C)c1-c1cccc(COc2cnc([C@H]3C[C@@H]3C(=O)O)cn2)c1` [Example 8, (1 S,2S)-2-{5-[4′-(3-Hydroxy-3-methyl-butoxy)-2′,6′-dimethyl-biphenyl-3-ylmethoxy]-pyrazin-2-yl}-cyclopropanecarboxylic acid] gave a pEC50 of 8.15.

Regarding `Cc1cc(-c2ccc(=O)n(C)c2)cc(C)c1-c1cccc(COc2cnc([C@H]3C[C@@H]3C(=O)O)cn2)c1` [Example 9, (1 S,2S)-2-{5-[2′,6′-Dimethyl-4′-(1-methyl-6-oxo-1,6-dihydro-pyridin-3-yl)-biphenyl-3-ylmethoxy]-pyrazin-2-yl}-cyclopropanecarboxylic acid], the pEC50 was 8.05.

Turning to `Cc1cc(-c2cnccn2)cc(C)c1-c1cccc(COc2cnc([C@H]3C[C@@H]3C(=O)O)cn2)c1` [Example 10, (1 S,2S)-2-[5-(2′,6′-Dimethyl-4′-pyrazin-2-yl-biphenyl-3-ylmethoxy)-pyrazin-2-yl]-cyclopropanecarboxylic acid], the pEC50 was 7.89.

`Cc1cc(-c2ccnn2C)cc(C)c1-c1cccc(COc2cnc([C@H]3C[C@@H]3C(=O)O)cn2)c1` [Example 11, (1 S,2S)-2-{5-[2′,6′-Dimethyl-4′-(2-methyl-2H-pyrazol-3-yl)-biphenyl-3-ylmethoxy]-pyrazin-2-yl}-cyclopropanecarboxylic acid]: the pEC50 was 8.22.

Take `Cc1cc(-c2nnn(CC(C)(C)O)n2)cc(C)c1-c1cccc(COc2cnc([C@H]3C[C@@H]3C(=O)O)cn2)c1` [Example 12, (1 S,2S)-2-(5-{4′-[2-(2-Hydroxy-2-methyl-propyl)-2H-tetrazol-5-yl]-2′,6′-dimethyl-biphenyl-3-ylmethoxy}-pyrazin-2-yl)-cyclopropanecarboxylic acid]: the pEC50 is 8.10.

Compound `CCc1cccc(CC)c1-c1cccc(COc2cnc([C@H]3C[C@@H]3C(=O)O)cn2)c1` [Example 13, (1 S,2S)-2-[5-(2′,6′-Diethyl-biphenyl-3-ylmethoxy)-pyrazin-2-yl]-cyclopropane-carboxylic acid] gave a pEC50 of 7.70.

Consider `Cc1cc(OCC2CCCO2)cc(C)c1-c1ccc(F)c(COc2cnc([C@H]3C[C@@H]3C(=O)O)cn2)c1` (stereo partly drawn) [Example 14, (1 S,2S)-2-{5-[4-Fluoro-2′,6′-dimethyl-4′-(tetrahydro-furan-2-ylmethoxy)-biphenyl-3-ylmethoxy]-pyrazin-2-yl}-cyclopropanecarboxylic acid], for which the pEC50 is 8.22.

`O=C(O)[C@H]1C[C@@H]1c1cnc(OCc2cc(-c3c(Cl)cccc3Cl)ccc2F)cn1` [Example 15, (1 S,2S)-2-[5-(2′,6′-Dichloro-4-fluoro-biphenyl-3-ylmethoxy)-pyrazin-2-yl]-cyclopropanecarboxylic acid] showed a pEC50 of 8.10.

As for `Cc1cnc(-c2cc(C)c(-c3ccc(F)c(COc4cnc([C@H]5C[C@@H]5C(=O)O)cn4)c3)c(C)c2)nc1` [Example 16, (1 S,2S)-2-{5-[4-Fluoro-2′,6′-dimethyl-4′-(5-methyl-pyrimidin-2-yl)-biphenyl-3-ylmethoxy]-pyrazin-2-yl}-cyclopropanecarboxylic acid], the pEC50 is 8.52.

For `COc1cc(-c2cc(C)c(-c3ccc(F)c(COc4cnc([C@H]5C[C@@H]5C(=O)O)cn4)c3)c(C)c2)ccn1` [Example 17, (1 S,2S)-2-{5-[4-Fluoro-4′-(2-methoxy-pyridin-4-yl)-2′,6′-dimethyl-biphenyl-3-ylmethoxy]-pyrazin-2-yl}-cyclopropanecarboxylic acid], the pEC50 is 8.15.

`Cc1cc(OCCCS(C)(=O)=O)cc(C)c1-c1ccc(F)c(COc2cnc([C@H]3C[C@@H]3C(=O)O)cn2)c1` [Example 18, (1 S,2S)-2-{5-[4-Fluoro-4′-(3-methanesulfonyl-propoxy)-2′,6′-dimethyl-biphenyl-3-ylmethoxy]-pyrazin-2-yl}-cyclopropanecarboxylic acid] had a pEC50 of 8.15.

`Cc1cc(OCC2CCOCC2)cc(C)c1-c1ccc(F)c(COc2cnc([C@H]3C[C@@H]3C(=O)O)cn2)c1` [Example 19, (1 S,2S)-2-{5-[4-Fluoro-2′,6′-dimethyl-4′-(tetrahydro-pyran-4-ylmethoxy)-biphenyl-3-ylmethoxy]-pyrazin-2-yl}-cyclopropanecarboxylic acid]: the negative-log EC50 (pEC50) is 8.22.

For the compound `CC(C)c1ccccc1-c1ccc(F)c(COc2cnc([C@H]3C[C@@H]3C(=O)O)cn2)c1` [Example 20, (1 S,2S)-2-[5-(4-Fluoro-2′-isopropyl-biphenyl-3-ylmethoxy)-pyrazin-2-yl]-cyclopropanecarboxylic acid], the pEC50 is 7.46.

Consider `CC(C)(O)CCOc1ccc(-c2cc(COc3cnc([C@H]4C[C@@H]4C(=O)O)cn3)ccc2C(F)(F)F)cc1` [Example 21, (1 S,2S)-2-{5-[4′-(3-Hydroxy-3-methyl-butoxy)-6-trifluoromethyl-biphenyl-3-ylmethoxy]-pyrazin-2-yl}-cyclopropanecarboxylic acid], for which the pEC50 is 8.52.

Take `Cc1nnc(-c2ccc(-c3cc(COc4cnc([C@H]5C[C@@H]5C(=O)O)cn4)ccc3C(F)(F)F)cc2)o1` [Example 22, (1 S,2S)-2-{5-[4′-(5-Methyl-[1,3,4]oxadiazol-2-yl)-6-trifluoromethyl-biphenyl-3-ylmethoxy]-pyrazin-2-yl}-cyclopropanecarboxylic acid]: the negative-log EC50 (pEC50) was 8.40.
